Test results taken from the supplement of paper PMC13380429.

Columns and labels:
HepG2 [1] = experiment: cell viability relative to DMSO; higher = less toxic; details: 72 h
U2OS [2] = experiment: as above; details: 72 h
Caco-2 [3] = experiment: as above; details: 72 h
Calu-3 [4] = experiment: as above; details: 72 h
Vero E6 [5] = experiment: as above; details: 72 h
HepG2 [6] = experiment: relative viability EC50 (midpoint between 100% and the lowest measured viability); higher = less toxic; details: 72 h
U2OS [7] = experiment: as above; details: 72 h
Calu-3 [8] = experiment: as above; details: 72 h
HepG2 [9] = experiment: drug sensitivity score (DSS) for viability; higher = more toxic; extreme values may be limits of the assay; details: 72 h
U2OS [10] = experiment: as above; details: 72 h
Caco-2 [11] = experiment: as above; details: 72 h
Calu-3 [12] = experiment: as above; details: 72 h
Vero E6 [13] = experiment: as above; details: 72 h
[14] = system: A549-ACE2 infected with SARS-CoV-2; experiment: morphology score (similarity to uninfected cells); higher = more like uninfected cells; details: 24 h
[15] = system: A549-ACE2 infected with SARS-CoV-2; experiment: SARS-CoV-2 infection rate relative to DMSO; higher = more infection; details: 24 h
A549-ACE2 [16] = experiment: phospholipidosis EC50; higher = less potent phospholipidosis inducer
[17] = system: A549-ACE2 infected with SARS-CoV-2; experiment: cell count relative to DMSO; higher = less toxic; details: 24 h
A549-ACE2 [18] = experiment: drug-induced phospholipidosis relative to tamoxifen; higher = more phospholipidosis
Vero E6 [19] = experiment: relative viability EC50 (midpoint between 100% and the lowest measured viability); higher = less toxic; details: 72 h

COc1ccccc1C1(O)CCN(CCCn2c3ccccc3c3ccccc32)CC1 [NNC-05-2090]
Details	SARS-CoV-2 infection rate [%]	cell count [%]	cell viability [%]	morphology score	phospholipidosis EC50 [µM]
A549-ACE2 [16], 24 h	–	–	–	–	1.98
A549-ACE2 [16], 48 h	–	–	–	–	3.85
A549-ACE2 [16], 72 h	–	–	–	–	4.18
Caco-2 [3], 1 nM	–	–	97.4	–	–
Caco-2 [3], 10 nM	–	–	91.7	–	–
Caco-2 [3], 100 nM	–	–	109	–	–
Caco-2 [3], 1000 nM	–	–	83.1	–	–
Caco-2 [3], 10000 nM	–	–	68.4	–	–
Calu-3 [4], 1 nM	–	–	94.1	–	–
Calu-3 [4], 10 nM	–	–	99.9	–	–
Calu-3 [4], 100 nM	–	–	90.7	–	–
Calu-3 [4], 1000 nM	–	–	89.1	–	–
Calu-3 [4], 10000 nM	–	–	7.5	–	–
HepG2 [1], 1 nM	–	–	94.9	–	–
HepG2 [1], 10 nM	–	–	99.7	–	–
HepG2 [1], 100 nM	–	–	90.4	–	–
HepG2 [1], 1000 nM	–	–	99.9	–	–
HepG2 [1], 10000 nM	–	–	40.8	–	–
U2OS [2], 1 nM	–	–	99.4	–	–
U2OS [2], 10 nM	–	–	94.1	–	–
U2OS [2], 100 nM	–	–	102	–	–
U2OS [2], 1000 nM	–	–	94.6	–	–
U2OS [2], 10000 nM	–	–	82.9	–	–
Vero E6 [5], 1 nM	–	–	90.9	–	–
Vero E6 [5], 10 nM	–	–	97.5	–	–
Vero E6 [5], 100 nM	–	–	88.1	–	–
Vero E6 [5], 1000 nM	–	–	92.1	–	–
Vero E6 [5], 10000 nM	–	–	74.5	–	–
[14], 0.1 µM	–	–	–	0.12	–
[14], 0.3 µM	–	–	–	0.04	–
[14], 1 µM	–	–	–	0.29	–
[14], 3 µM	–	–	–	0.85	–
[15], 0.1 µM	98	–	–	–	–
[15], 0.3 µM	98	–	–	–	–
[15], 1 µM	86	–	–	–	–
[15], 3 µM	34	–	–	–	–
[17], 0.1 µM	–	98	–	–	–
[17], 0.3 µM	–	106	–	–	–
[17], 1 µM	–	109	–	–	–
[17], 3 µM	–	119	–	–	–

Details	drug sensitivity score	relative viability EC50 [µM]
Caco-2 [11]	3.4	–
Calu-3 [8]	–	2.19
Calu-3 [12]	7	–
HepG2 [6]	–	3.14
HepG2 [9]	3.2	–
U2OS [7]	–	> 10
U2OS [10]	0.9	–
Vero E6 [13]	1.9	–

drug-induced phospholipidosis [%], A549-ACE2 [18]
Details	0.3 µM	0.833333 µM	3.33333 µM	6.66667 µM	10 µM
24 h	3.96	10.5	87.6	108	101
48 h	4.69	12.2	64.2	102	116
72 h	5.37	9.7	49.7	106	121

CCCCCCCCc1ccc(CCC(N)(CO)CO)cc1 [fingolimod]
Details	SARS-CoV-2 infection rate [%]	cell count [%]	cell viability [%]	morphology score	phospholipidosis EC50 [µM]
A549-ACE2 [16], 24 h	–	–	–	–	3.36
A549-ACE2 [16], 48 h	–	–	–	–	3.04
A549-ACE2 [16], 72 h	–	–	–	–	5.67
Caco-2 [3], 1 nM	–	–	101	–	–
Caco-2 [3], 10 nM	–	–	100	–	–
Caco-2 [3], 100 nM	–	–	87.2	–	–
Caco-2 [3], 1000 nM	–	–	93.8	–	–
Caco-2 [3], 10000 nM	–	–	55.7	–	–
Calu-3 [4], 1 nM	–	–	101	–	–
Calu-3 [4], 10 nM	–	–	104	–	–
Calu-3 [4], 100 nM	–	–	102	–	–
Calu-3 [4], 1000 nM	–	–	94.9	–	–
Calu-3 [4], 10000 nM	–	–	8.4	–	–
HepG2 [1], 1 nM	–	–	107	–	–
HepG2 [1], 10 nM	–	–	105	–	–
HepG2 [1], 100 nM	–	–	99.5	–	–
HepG2 [1], 1000 nM	–	–	98	–	–
HepG2 [1], 10000 nM	–	–	0.4	–	–
U2OS [2], 1 nM	–	–	102	–	–
U2OS [2], 10 nM	–	–	105	–	–
U2OS [2], 100 nM	–	–	102	–	–
U2OS [2], 1000 nM	–	–	105	–	–
U2OS [2], 10000 nM	–	–	71.9	–	–
Vero E6 [5], 1 nM	–	–	105	–	–
Vero E6 [5], 10 nM	–	–	95.4	–	–
Vero E6 [5], 100 nM	–	–	105	–	–
Vero E6 [5], 1000 nM	–	–	101	–	–
Vero E6 [5], 10000 nM	–	–	84.7	–	–
[14], 0.3 µM	–	–	–	-0.2	–
[14], 3 µM	–	–	–	0.46	–
[14], 10 µM	–	–	–	0.74	–
[15], 0.3 µM	100	–	–	–	–
[15], 3 µM	64	–	–	–	–
[15], 10 µM	12	–	–	–	–
[17], 0.3 µM	–	100	–	–	–
[17], 3 µM	–	109	–	–	–
[17], 10 µM	–	114	–	–	–

Details	drug sensitivity score	relative viability EC50 [µM]
Caco-2 [11]	3.3	–
Calu-3 [8]	–	2.73
Calu-3 [12]	5.8	–
HepG2 [6]	–	3.02
HepG2 [9]	5.8	–
U2OS [10]	0.9	–
Vero E6 [13]	0.2	–
Vero E6 [19]	–	> 10

drug-induced phospholipidosis [%], A549-ACE2 [18]
Details	0.3 µM	0.833333 µM	3.33333 µM	6.66667 µM	10 µM
24 h	9.06	18.8	83.3	124	138
48 h	8.05	10.9	84.5	114	135
72 h	4.63	6.35	49.7	102	130

CCN(CC)CCNC(=O)c1c(C)[nH]c(/C=C2\C(=O)Nc3ccc(F)cc32)c1C [sunitinib]
Details	drug sensitivity score
Caco-2 [11]	5.7
Calu-3 [12]	0.1
HepG2 [9]	9
U2OS [10]	4
Vero E6 [13]	4.1

Details	morphology score, 0.1 µM	morphology score, 0.3 µM	morphology score, 1 µM	morphology score, 3 µM	phospholipidosis EC50, 24 h [µM]	phospholipidosis EC50, 48 h [µM]	phospholipidosis EC50, 72 h [µM]
A549-ACE2 [16]	–	–	–	–	4.75	4.77	3.32
[14]	0.28	0.35	0.53	0.51	–	–	–
